Results reported in article PMC6750108, “Crystal Structure of 4-Hydroxyphenylpyruvate Dioxygenase in Complex with Substrate Reveals a New Starting Point for Herbicide Discovery” (Research, 2019).

Experiments:
human HPPD = molecular target: T1, human HPPD (Homo sapiens, UniProt P32754); experiment: inhibition kinetics (supplement Method S2); type: biochemical
T1 construct: gene HPD

AtHPPD = molecular target: T2, AtHPPD (Arabidopsis thaliana, UniProt P93836); experiment: HGD-coupled assay at […] nm, progress curves; type: biochemical
T2 construct: gene HPD; full-length, N-terminal His tag (pET15b), E. coli BL21 (DE3); Ni-NTA, ion exchange, size exclusion; homodimers in crystal
T2 sequence (P93836 1-445): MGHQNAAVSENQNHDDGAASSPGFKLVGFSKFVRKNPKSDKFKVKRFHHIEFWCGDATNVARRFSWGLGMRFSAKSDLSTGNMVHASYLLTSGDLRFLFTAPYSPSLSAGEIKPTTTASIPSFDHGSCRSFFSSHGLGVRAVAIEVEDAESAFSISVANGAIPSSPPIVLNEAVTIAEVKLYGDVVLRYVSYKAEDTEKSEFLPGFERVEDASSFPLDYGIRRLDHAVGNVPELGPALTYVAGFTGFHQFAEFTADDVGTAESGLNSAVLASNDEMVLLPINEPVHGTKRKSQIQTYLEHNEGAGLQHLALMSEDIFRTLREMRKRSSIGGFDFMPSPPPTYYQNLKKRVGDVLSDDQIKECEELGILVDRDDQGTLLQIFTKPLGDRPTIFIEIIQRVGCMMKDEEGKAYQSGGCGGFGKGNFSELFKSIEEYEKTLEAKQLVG

T1 sequence (P32754 2-393): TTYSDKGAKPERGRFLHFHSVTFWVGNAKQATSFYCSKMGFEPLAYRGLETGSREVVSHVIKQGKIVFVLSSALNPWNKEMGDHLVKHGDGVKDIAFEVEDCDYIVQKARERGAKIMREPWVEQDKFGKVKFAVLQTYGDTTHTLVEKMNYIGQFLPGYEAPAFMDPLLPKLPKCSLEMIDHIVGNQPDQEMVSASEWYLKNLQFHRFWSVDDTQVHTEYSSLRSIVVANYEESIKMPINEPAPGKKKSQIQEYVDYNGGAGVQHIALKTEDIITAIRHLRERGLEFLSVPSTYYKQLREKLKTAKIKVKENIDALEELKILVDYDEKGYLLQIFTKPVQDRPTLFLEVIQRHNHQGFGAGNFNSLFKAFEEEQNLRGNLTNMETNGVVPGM

`Cc1cccc(C)c1-n1c(=O)c2cc(C(=O)C3C(=O)CCCC3=O)ccc2n(C)c1=O` [Y13161] gave a Ki (human HPPD) of 179 ± 7.7 nM and a Ki (AtHPPD) of 24.2 ± 1.01 nM.
